“And” between values parts separate entries of the source, which are not always exact repeats. Equal values may be shown once. Read-outs that look alike come from different tables or passages of the source.
Assays:
[1] = system: EV-A71; experiment: microbe, parasite or virus in culture; assay type: cell-based, enterovirus A71; conditions: for EC50: Enterovirus A
[2] = system: EV-D68 (strain Fermon); assay type: cell-based, enterovirus D68
[3] = system: HRV-B14; assay type: cell-based, human rhinovirus
[4] = system: representative EVs and RVs; assay type: cell-based
[5] = system: PV-1; experiment: microbe, parasite or virus in culture; assay type: cell-based, poliovirus 1; conditions: for EC50: Enterovirus C
[6] = system: CV-B3; experiment: microbe, parasite or virus in culture; assay type: cell-based, coxsackievirus B3; conditions: Enterovirus B
[7] = system: EV-D68; experiment: microbe, parasite or virus in culture; assay type: cell-based, enterovirus D68; conditions: for EC50: Enterovirus D
[8] = system: HRV-A2; assay type: cell-based, human rhinovirus
[9] = system: CV-A24; experiment: microbe, parasite or virus in culture; assay type: cell-based, coxsackievirus A24; conditions: Enterovirus C

## COc1ccc(N(Cc2ccc(F)cc2)C(=O)c2cc[nH]c2)cc1 [Compound 12a, N-(4-Fluorobenzyl)-N-(4-methoxyphenyl)-1H-pyrrole-3-carboxamide]
[1]; Concentration 0.0046 µM
  Figure 7 dose-response raw data, EV-A71 (triplicate values): 12.3336 and 15.0352 and 19.2639
[1]; Concentration 0.0137 µM
  Figure 7 dose-response raw data, EV-A71 (triplicate values): 12.3336 and 12.2161 and 11.2764
[1]; Concentration 0.0412 µM
  Figure 7 dose-response raw data, EV-A71 (triplicate values): 12.0987 and 12.2161 and 13.2733
[1]; Concentration 0.1235 µM
  Figure 7 dose-response raw data, EV-A71 (triplicate values): 11.9812 and 14.0955 and 13.6257
[1]; Concentration 0.3704 µM
  Figure 7 dose-response raw data, EV-A71 (triplicate values): 12.5685 and 16.7972 and 13.6257
[1]; Concentration 1.1111 µM
  Figure 7 dose-response raw data, EV-A71 (triplicate values): 12.3336 and 15.0352 and 19.2639
[1]; Concentration 3.3333 µM
  Figure 7 dose-response raw data, EV-A71 (triplicate values): 12.3336 and 15.0352 and 19.2639
[1]; Concentration 11.1111 µM
  Figure 7 dose-response raw data, EV-A71 (triplicate values): 119.819 and 116.746 and 110.126
[1]; Concentration 33.3333 µM
  Figure 7 dose-response raw data, EV-A71 (triplicate values): 119.701 and 118.637 and 111.781
[1]; Concentration 100 µM
  Figure 7 dose-response raw data, EV-A71 (triplicate values): 110.819 and 116.746 and 120.126
[1]; EVA71, HeLa R19, read-out: EC50 EV-A71
  EC50: 4.03 ± 0.73 µM
[1]; EVA71, HeLa R19, read-out: EC50 EV-A71 strain BrCr
  EC50: 4.48 ± 0.42 µM
[1]; EVA71, HeLa R19, read-out: EC50 EV-A71 strain TW/2728/04
  EC50: 8.33 ± 0.65 µM
[1]; EVA71, HeLa R19, read-out: EC50 EV-A71 strain TW/2945/98
  EC50: 9.17 ± 0.41 µM
[1]; EVA71, HeLa R19, read-out: EC50 EV-A71 strain TW/70811/08
  EC50: 8.18 ± 0.61 µM
[1]; EVA71, HeLa R19, read-out: EC50 EV-A71 strain TW/72232/04
  EC50: 6.41 ± 2.09 µM
[1]; EVA71, HeLa R19, read-out: EC50 EV-A71 strain TW/96016/08
  EC50: 9.47 ± 0.04 µM
[2]; compound concentration 0.01 µM
  virus titer, TCID50/ml (Figure 2A): 6000000 TCID50/ml and 4677352 TCID50/ml
[2]; compound concentration 0.1 µM
  virus titer, TCID50/ml (Figure 2A): 7000000 TCID50/ml and 4677352 TCID50/ml and 8000000 TCID50/ml
[2]; compound concentration 3 µM
  virus titer, TCID50/ml (Figure 2A): 21379.6 TCID50/ml and 35481.3 TCID50/ml and 31622.8 TCID50/ml
[2]; compound concentration 100 µM
  virus titer, TCID50/ml (Figure 2A): 31622.8 TCID50/ml and 21379.6 TCID50/ml and 35481.3 TCID50/ml
[3]; compound concentration 0.3 µM
  virus titer, TCID50/ml (Figure 2A): 10000000 TCID50/ml and 16982440 TCID50/ml
[3]; compound concentration 3 µM
  virus titer, TCID50/ml (Figure 2A): 10000000 TCID50/ml and 16982440 TCID50/ml
[4]
  inhibition of contemporary/clinical isolates of EV-A71, CV-A24v and EV-D68 (in words): inhibited all clinical isolates of EV-A71, CV-A24v, and EV-D68 tested
  spectrum of antiviral activity (in words): inhibited all representative EVs and RVs
[5]; Concentration 0.0046 µM
  Figure 7 dose-response raw data, PV-1 (triplicate values): 10.497 and 11.7005 and 9.1598
[5]; Concentration 0.0137 µM
  Figure 7 dose-response raw data, PV-1 (triplicate values): 10.497 and 11.7005 and 9.1598
[5]; Concentration 0.0412 µM
  Figure 7 dose-response raw data, PV-1 (triplicate values): 10.7644 and 8.357 and 9.1598
[5]; Concentration 0.1235 µM
  Figure 7 dose-response raw data, PV-1 (triplicate values): 13.4388 and 8.357 and 9.294
[5]; Concentration 0.3704 µM
  Figure 7 dose-response raw data, PV-1 (triplicate values): 10.497 and 11.7005 and 9.1598
[5]; Concentration 1.1111 µM
  Figure 7 dose-response raw data, PV-1 (triplicate values): 10.7644 and 8.357 and 9.1598
[5]; Concentration 3.3333 µM
  Figure 7 dose-response raw data, PV-1 (triplicate values): 13.4388 and 8.357 and 9.294
[5]; Concentration 100 µM
  Figure 7 dose-response raw data, PV-1 (triplicate values): 99.781 and 98.9928 and 101.358
[5]; HeLa R19, read-out: EC50 Exp1
  EC50: 3.89 µM
[5]; HeLa R19, read-out: EC50 Exp2
  EC50: 3.53 µM
[5]; HeLa R19, read-out: EC50 PV-1
  EC50: 3.71 ± 0.18 µM
[6]; CVB3, HAP1
  EC50: 0.02 ± 0.02 µM
[6]; CVB3, HAP1, read-out: EC50 Hap1 Average
  EC50: 0.023 µM
[6]; CVB3, HAP1, read-out: Exp 1 EC50 Hap1
  EC50: 0.04 µM
[6]; CVB3, HAP1, read-out: Exp 2 EC50 Hap1
  EC50: 0.006 µM
[7]
  cross-resistance of 19d-resistant EV-D68 virus pools (in words): cross-resistance
[7]; Concentration 0.001 µM
  Figure 7 dose-response raw data, EV-D68 (triplicate values): 11.1333 and 12.4782 and 12.9265
[7]; Concentration 0.0137 µM
  Figure 7 dose-response raw data, EV-D68 (triplicate values): 9.388 and 8.898 and 11.4747
[7]; Concentration 0.0412 µM
  Figure 7 dose-response raw data, EV-D68 (triplicate values): 11.1333 and 12.4782 and 12.9265
[7]; Concentration 0.1235 µM
  Figure 7 dose-response raw data, EV-D68 (triplicate values): 10.386 and 11.4321 and 12.9265
[7]; Concentration 0.3704 µM
  Figure 7 dose-response raw data, EV-D68 (triplicate values): 8.529 and 8.161 and 15.8928
[7]; Concentration 1.1111 µM
  Figure 7 dose-response raw data, EV-D68 (triplicate values): 91.9917 and 94.6194 and 110.886
[7]; Concentration 3.3333 µM
  Figure 7 dose-response raw data, EV-D68 (triplicate values): 101.502 and 102.252 and 110.761
[7]; Concentration 10 µM
  Figure 7 dose-response raw data, EV-D68 (triplicate values): 100.876 and 104.38 and 113.014
[7]; EVD68, HeLa R19, […], read-out: EC50 Exp1
  EC50: 3.04 µM
[7]; EVD68, HeLa R19, read-out: EC50 Average
  EC50: 1.25 µM
[7]; EVD68, HeLa R19, read-out: EC50 EV-D68
  EC50: 1.08 ± 0.2 µM
[7]; EVD68, HeLa R19, read-out: EC50 EV-D68 strain 4310900947
  EC50: 1.84 ± 0.4 µM
[7]; EVD68, HeLa R19, read-out: EC50 EV-D68 strain 4310901348
  EC50: 2.72 ± 0.96 µM
[7]; EVD68, HeLa R19, read-out: EC50 EV-D68 strain 4310902042
  EC50: 1.44 ± 0.23 µM
[7]; EVD68, HeLa R19, read-out: EC50 EV-D68 strain 4310902284
  EC50: 2.31 ± 0.82 µM
[7]; EVD68, HeLa R19, read-out: EC50 EV-D68 strain 4311000742
  EC50: 1.86 ± 0.16 µM
[7]; EVD68, HeLa R19, read-out: EC50 EV-D68 strain Fermon
  EC50: 1.23 ± 0.16 µM
[7]; EVD68 / genotype 2c, HeLa R19, read-out: EC50 EV-D68 WT
  EC50: 1.25 ± 0.09 µM
[8]; compound concentration 3 µM
  virus titer, TCID50/ml (Figure 2A): 354813 TCID50/ml
[8]; compound concentration 100 µM
  virus titer, TCID50/ml (Figure 2A): 737.962 TCID50/ml and 467.735 TCID50/ml and 500 TCID50/ml
[9]; CVA24, HeLa R19, read-out: EC50 Average
  EC50: 3.46 µM
[9]; CVA24, HeLa R19, read-out: EC50 CV-A24
  EC50: 3.51 ± 0.22 µM
[9]; CVA24, HeLa R19, read-out: EC50 CV-A24 strain Joseph
  EC50: 3.45 ± 0.42 µM

Reference: PMC7673538 (PLoS Biology, 2020)
